We go through 13 molecules from patent US9469674B2 (HAINAN UNIVERSITY, dated 2016).

Entries after “also recorded” stand apart in the source; their conditions may differ. Where a SMILES comes first, the peptide text is derived from it. Bridges are numbered along the chain shown (N, C = ends). Where no end group is shown, it is not given here.

Usually IC50 stands for the concentration that gives 50% inhibition.

One test has as its target α4β2 nAChR (Rattus norvegicus, UniProt P09483+P12390). Nature of the test: cell-based.
The target in the next test is α3β2 nAChR (Rattus norvegicus, UniProt P04757+P12390). Briefly: cell-based. Format: cell-based. Conditions: for IC50: IC50 (half-blocking dose).
Another test has as its target α6/α3β4 nAChR (Rattus norvegicus, UniProt P04757+P12392+P43143). Briefly: cell-based. The test is classed as cell-based.
Another test concerns the target α3β4 nAChR (Rattus norvegicus, UniProt P04757+P12392). Briefly: cell-based. Format: cell-based.
In another test the target is α2β2 nAChR (Rattus norvegicus, UniProt P12389+P12390). Briefly: cell-based. Format: cell-based.
For another test, the target named is α6/α3β2β3 nAChR (Rattus norvegicus, UniProt P04757+P12390+P43143). Nature of the test: cell-based. The test is classed as cell-based.
The target in the next test is α2β4 nAChR (Rattus norvegicus, UniProt P12389+P12392). Nature of the test: cell-based. The test is classed as cell-based.
A further test deals with α4β4 nAChR (Rattus norvegicus, UniProt P09483+P12392). Nature of the test: cell-based. The test is classed as cell-based.
The target of the next test is human α6/α3β2β3 nAChR (Homo sapiens, UniProt P17787+P32297+Q15825). Nature of the test: cell-based. The test is classed as cell-based.
A further test addresses α9α10 nAChR (Rattus norvegicus, UniProt P43144+Q9JLB5). Nature of the test: cell-based.
In another test the target is α7 nAChR (Rattus norvegicus, UniProt Q05941). Briefly: cell-based. Format: cell-based.
The subject of the next test is other nAChRs subtypes. Format: cell-based. The conditions noted are these: read-out: IC50 on other nAChRs subtypes (no blocking activity).
The target in test [1] is α3β2 acetylcholine receptor (Homo sapiens, UniProt P17787+P32297). The conditions noted are these: read-out: half-blocking dose IC50; cited from earlier work.
Test [2] addresses α6/α3β2β3 acetylcholine receptor. Conditions: read-out: half-blocking dose IC50; cited from earlier work.
In test [3] the target is α9α10 acetylcholine receptor (Homo sapiens, UniProt Q9GZZ6+Q9UGM1). Conditions: read-out: half-blocking dose IC50; cited from earlier work.
Test [4] deals with α6/α3β4 acetylcholine receptor. The conditions noted are these: read-out: half-blocking dose IC50; cited from earlier work.
Test [5] concerns the target α7 acetylcholine receptor (Homo sapiens, UniProt P36544). The conditions noted are these: read-out: half-blocking dose IC50; cited from earlier work.
For test [6], the target named is α3β4 acetylcholine receptor. Conditions: read-out: half-blocking dose IC50; cited from earlier work.
Another test concerns nAChRs. The conditions noted are these: cited from earlier work.
For test [7], the target named is rat α6/α3β2β3 nAChR (rat) (UniProt P12390).
The next test deals with rat α6/α3β4 nAChR (rat) (UniProt P12392).
The target in a further test is rat α3β2 nAChR (rat, UniProt P04757). Briefly: cell-based or functional assay.
A further test addresses rat α3β4 nAChR (rat, UniProt P04757). Briefly: cell-based or functional assay.
The next test addresses rat α4β2 nAChR (rat, UniProt P09483). Briefly: cell-based or functional assay.
In a further test the target is rat α4β4 nAChR (rat, UniProt P09483). Nature of the test: cell-based or functional assay.
The target in another test is rat α2β4 nAChR (rat, UniProt P12389). Briefly: cell-based or functional assay.
The next test has as its target rat α7 nAChR (rat, UniProt Q05941). Nature of the test: cell-based or functional assay.
A further test addresses rat α9α10 nAChR (rat, UniProt P43144). Nature of the test: cell-based or functional assay.
Another test addresses rat α2β2 nAChR (rat, UniProt P12389). Briefly: cell-based or functional assay.

Chain of α7 nAChR (Q05941 23-502 limits assumed): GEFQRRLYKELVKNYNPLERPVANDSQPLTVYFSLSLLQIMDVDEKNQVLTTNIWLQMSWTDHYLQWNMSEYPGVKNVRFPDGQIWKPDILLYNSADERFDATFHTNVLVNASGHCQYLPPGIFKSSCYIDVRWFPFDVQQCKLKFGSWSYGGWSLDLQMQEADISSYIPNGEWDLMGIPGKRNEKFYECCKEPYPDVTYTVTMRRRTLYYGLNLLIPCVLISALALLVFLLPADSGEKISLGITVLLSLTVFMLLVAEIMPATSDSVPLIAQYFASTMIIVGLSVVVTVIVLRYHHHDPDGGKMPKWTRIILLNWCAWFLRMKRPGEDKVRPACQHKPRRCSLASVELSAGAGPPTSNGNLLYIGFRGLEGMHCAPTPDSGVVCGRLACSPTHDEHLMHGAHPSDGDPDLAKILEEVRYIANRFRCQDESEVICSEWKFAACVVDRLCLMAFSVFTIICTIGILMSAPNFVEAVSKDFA
Chain of α3β2 acetylcholine receptor (P32297 32-505 limits assumed): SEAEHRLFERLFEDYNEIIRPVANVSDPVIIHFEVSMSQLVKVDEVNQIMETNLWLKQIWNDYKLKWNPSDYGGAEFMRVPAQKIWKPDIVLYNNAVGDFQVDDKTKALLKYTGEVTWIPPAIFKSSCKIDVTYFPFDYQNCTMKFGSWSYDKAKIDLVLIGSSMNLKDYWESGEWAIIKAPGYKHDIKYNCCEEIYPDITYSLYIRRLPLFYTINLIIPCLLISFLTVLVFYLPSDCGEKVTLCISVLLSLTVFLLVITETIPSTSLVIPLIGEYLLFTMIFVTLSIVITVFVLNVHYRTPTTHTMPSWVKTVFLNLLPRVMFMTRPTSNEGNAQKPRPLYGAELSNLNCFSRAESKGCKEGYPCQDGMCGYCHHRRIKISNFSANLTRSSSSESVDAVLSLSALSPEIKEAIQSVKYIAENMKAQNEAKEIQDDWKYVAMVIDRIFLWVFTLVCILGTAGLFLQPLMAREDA
Chain of α3β2 acetylcholine receptor (P17787 26-502 limits assumed): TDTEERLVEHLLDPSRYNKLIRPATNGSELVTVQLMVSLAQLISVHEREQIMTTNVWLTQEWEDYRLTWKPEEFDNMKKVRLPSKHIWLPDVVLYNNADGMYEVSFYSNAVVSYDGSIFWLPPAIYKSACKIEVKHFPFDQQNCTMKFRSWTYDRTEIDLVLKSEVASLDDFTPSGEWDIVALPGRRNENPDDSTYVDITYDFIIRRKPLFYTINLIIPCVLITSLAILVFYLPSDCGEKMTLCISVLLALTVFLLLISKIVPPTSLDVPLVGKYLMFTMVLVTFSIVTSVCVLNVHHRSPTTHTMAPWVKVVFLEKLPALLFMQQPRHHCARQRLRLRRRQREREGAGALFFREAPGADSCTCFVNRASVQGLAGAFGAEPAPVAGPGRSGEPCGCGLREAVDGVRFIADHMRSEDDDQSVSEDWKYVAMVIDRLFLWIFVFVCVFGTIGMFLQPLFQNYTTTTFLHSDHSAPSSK
Chain of α6/α3β4 nAChR (P04757 whole entry, looked up): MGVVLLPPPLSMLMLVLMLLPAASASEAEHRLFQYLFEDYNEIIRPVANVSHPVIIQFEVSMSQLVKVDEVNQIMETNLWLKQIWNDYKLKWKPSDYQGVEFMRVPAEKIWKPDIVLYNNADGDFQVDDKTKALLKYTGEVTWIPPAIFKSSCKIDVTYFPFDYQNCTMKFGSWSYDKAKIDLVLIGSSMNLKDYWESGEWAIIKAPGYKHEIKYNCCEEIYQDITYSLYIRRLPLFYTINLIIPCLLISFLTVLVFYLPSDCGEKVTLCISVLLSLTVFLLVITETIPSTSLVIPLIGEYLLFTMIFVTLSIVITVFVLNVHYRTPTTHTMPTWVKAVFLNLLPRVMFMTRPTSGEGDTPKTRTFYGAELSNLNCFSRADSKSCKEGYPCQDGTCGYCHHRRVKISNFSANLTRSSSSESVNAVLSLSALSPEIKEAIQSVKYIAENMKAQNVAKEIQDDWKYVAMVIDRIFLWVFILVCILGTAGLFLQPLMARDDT
Chain of α6/α3β4 nAChR (P12392 whole entry, looked up): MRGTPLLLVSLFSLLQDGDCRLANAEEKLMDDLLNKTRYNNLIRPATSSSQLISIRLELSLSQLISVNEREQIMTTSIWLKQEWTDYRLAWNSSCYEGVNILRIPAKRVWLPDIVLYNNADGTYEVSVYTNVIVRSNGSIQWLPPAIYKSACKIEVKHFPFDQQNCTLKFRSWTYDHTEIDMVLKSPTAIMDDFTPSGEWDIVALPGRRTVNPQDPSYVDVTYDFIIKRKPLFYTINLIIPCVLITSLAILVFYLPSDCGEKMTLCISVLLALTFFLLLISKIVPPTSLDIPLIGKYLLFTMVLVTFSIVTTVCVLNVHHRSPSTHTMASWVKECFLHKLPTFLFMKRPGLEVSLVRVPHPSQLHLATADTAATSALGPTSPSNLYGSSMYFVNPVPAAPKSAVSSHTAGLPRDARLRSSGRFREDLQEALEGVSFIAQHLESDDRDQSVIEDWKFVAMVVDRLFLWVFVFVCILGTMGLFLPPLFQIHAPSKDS
Chain of α6/α3β4 nAChR (P43143 whole entry, looked up): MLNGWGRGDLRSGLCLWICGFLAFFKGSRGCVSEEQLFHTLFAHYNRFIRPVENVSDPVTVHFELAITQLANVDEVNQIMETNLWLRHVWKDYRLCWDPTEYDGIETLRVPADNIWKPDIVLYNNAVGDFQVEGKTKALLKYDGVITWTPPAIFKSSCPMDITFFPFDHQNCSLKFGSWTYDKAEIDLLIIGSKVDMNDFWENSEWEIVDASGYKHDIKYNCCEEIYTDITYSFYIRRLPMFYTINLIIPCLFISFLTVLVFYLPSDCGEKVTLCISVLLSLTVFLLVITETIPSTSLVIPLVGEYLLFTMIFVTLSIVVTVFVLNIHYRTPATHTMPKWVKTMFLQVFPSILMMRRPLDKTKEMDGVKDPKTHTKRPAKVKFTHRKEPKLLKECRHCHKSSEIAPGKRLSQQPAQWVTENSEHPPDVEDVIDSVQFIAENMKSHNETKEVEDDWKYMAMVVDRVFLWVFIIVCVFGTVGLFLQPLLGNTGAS
Chain of α6/α3β2β3 nAChR (P04757 whole entry, looked up): as the sequence (P04757 whole entry, looked up) above
Chain of α6/α3β2β3 nAChR (P12390 whole entry, looked up): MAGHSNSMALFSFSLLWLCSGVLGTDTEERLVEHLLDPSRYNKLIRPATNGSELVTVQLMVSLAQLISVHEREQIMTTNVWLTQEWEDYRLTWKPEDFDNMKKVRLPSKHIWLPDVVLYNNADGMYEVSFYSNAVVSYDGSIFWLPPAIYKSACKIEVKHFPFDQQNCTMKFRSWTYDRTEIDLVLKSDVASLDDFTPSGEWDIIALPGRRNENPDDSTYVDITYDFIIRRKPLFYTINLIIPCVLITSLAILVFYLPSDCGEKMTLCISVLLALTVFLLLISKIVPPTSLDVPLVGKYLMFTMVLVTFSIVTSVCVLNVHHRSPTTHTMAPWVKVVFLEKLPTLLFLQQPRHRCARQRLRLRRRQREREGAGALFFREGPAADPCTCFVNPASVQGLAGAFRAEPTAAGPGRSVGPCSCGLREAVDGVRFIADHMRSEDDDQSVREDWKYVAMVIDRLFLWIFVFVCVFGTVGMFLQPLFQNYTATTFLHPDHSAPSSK
Chain of α6/α3β2β3 nAChR (P43143 whole entry, looked up): as the sequence (P43143 whole entry, looked up) above
Chain of α9α10 acetylcholine receptor (Q9UGM1 26-479 limits assumed): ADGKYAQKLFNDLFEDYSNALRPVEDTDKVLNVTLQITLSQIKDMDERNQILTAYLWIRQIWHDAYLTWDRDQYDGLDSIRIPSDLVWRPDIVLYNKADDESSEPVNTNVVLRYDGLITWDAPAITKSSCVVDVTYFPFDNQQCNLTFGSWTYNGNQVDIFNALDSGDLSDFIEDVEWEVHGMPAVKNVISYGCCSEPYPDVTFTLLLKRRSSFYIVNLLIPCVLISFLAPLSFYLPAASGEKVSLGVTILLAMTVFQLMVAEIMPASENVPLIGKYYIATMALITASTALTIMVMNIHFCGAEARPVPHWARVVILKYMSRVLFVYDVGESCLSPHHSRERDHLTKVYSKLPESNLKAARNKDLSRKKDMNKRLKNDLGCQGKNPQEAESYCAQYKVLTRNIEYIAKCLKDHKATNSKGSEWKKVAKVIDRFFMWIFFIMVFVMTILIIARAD
Chain of α9α10 acetylcholine receptor (Q9GZZ6 25-450 limits assumed): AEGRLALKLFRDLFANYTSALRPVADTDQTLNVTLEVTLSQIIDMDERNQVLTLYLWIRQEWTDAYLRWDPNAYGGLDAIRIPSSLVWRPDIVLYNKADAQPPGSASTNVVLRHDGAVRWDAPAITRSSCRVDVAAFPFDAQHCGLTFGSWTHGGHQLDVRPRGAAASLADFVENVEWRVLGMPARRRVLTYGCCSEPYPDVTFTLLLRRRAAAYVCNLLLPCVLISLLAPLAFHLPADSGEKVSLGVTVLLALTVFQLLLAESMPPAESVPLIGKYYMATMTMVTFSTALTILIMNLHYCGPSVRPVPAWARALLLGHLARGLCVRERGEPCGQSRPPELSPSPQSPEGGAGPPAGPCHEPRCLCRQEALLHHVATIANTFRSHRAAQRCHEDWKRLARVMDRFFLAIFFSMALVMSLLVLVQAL
Chain of α7 acetylcholine receptor (P36544 23-502 limits assumed): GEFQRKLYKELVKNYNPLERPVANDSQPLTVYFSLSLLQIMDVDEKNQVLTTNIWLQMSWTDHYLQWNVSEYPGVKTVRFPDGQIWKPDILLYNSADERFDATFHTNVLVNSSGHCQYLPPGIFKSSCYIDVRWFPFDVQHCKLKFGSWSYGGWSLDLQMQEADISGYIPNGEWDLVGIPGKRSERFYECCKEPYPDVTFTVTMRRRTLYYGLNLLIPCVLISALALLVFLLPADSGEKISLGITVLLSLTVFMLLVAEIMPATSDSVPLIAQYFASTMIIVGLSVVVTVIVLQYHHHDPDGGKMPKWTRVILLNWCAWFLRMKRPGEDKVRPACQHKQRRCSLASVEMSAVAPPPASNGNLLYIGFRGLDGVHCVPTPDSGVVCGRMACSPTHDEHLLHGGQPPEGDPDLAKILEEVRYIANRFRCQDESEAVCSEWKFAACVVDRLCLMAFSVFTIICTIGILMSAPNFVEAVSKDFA

`CC(C)C[C@@H]1NC(=O)[C@H](CC(=O)O)NC(=O)[C@@H]2CCCN2C(=O)[C@H](Cc2c[nH]cn2)NC(=O)[C@H](CCCCN)NC(=O)[C@H](CC(N)=O)NC(=O)[C@H](CCCNC(=N)N)NC(=O)[C@@H]2CSSC[C@H](NC(=O)CN)C(=O)N[C@@H](CSSC[C@@H](C(=O)NCC(N)=O)NC1=O)C(=O)N[C@@H](CO)C(=O)N[C@@H](CC(=O)O)C(=O)N1CCC[C@H]1C(=O)N1CCC[C@H]1C(=O)N2` [TxIB(G)] (H-GCCSDPPCRNKHPDLCG-NH2; disulfide 2-8, 3-16): the IC50 on α4β2 nAChR is more than 10 µM; against α3β2 nAChR, more than 10 µM; against α6/α3β4 nAChR, more than 10 µM; against α3β4 nAChR it was more than 10 µM; at α2β2 nAChR, more than 10 µM; against α6/α3β2β3 nAChR, 0.247 µM. For the same molecule, the concentration for half-maximal inhibition (IC50) against α2β4 nAChR, on α4β4 nAChR, against α9α10 nAChR and on α7 nAChR was more than 10 µM each time. Moreover, the “Ratio of half-blocking dose (IC50) between TxIB(G) and TxIB” value on α6/α3β2β3 nAChR is recorded as 8.7. On human α6/α3β2β3 nAChR, the “blocking activity on human α6/α3β2β3 nAChR” value is reported as “blocking activity similar to those for rat α6/α3β2β3 nAChR”.

As to `CC(C)C[C@@H]1NC(=O)[C@H](CC(=O)O)NC(=O)[C@@H]2CCCN2C(=O)[C@H](Cc2c[nH]cn2)NC(=O)[C@H](CCCCN)NC(=O)[C@H](CC(N)=O)NC(=O)[C@H](CCCNC(=N)N)NC(=O)[C@@H]2CSSC[C@H](NC(=O)CN)C(=O)N[C@@H](CSSC[C@@H](C(N)=O)NC1=O)C(=O)N[C@@H](CO)C(=O)N[C@@H](CC(=O)O)C(=O)N1CCC[C@H]1C(=O)N1CCC[C@H]1C(=O)N2` [TxIB] (H-GCCSDPPCRNKHPDLC-NH2; disulfide 2-8, 3-16), in the test on other nAChRs subtypes, the half-inhibitory concentration (IC50) was more than 10 µM. Also, the “blocking of ACh-gated current” value on α3β2 nAChR is on record as “totally does not block; also recorded: no blocking activity”; on α6/α3β4 nAChR, “totally does not block; also recorded: no blocking activity”; on α3β4 nAChR it was “totally does not block; also recorded: no blocking activity”; at α6/α3β2β3 nAChR it was “specifically blocked; also recorded: almost total blocked”. Besides, at α6/α3β2β3 nAChR, the “Hill slope of dose-response curve” value is 0.51 (0.41-0.60). For the same molecule, at α6/α3β2β3 nAChR, the “Ratio of half-blocking dose (IC50) between TxIB(G) and TxIB” value amounted to 1. For the same molecule, at human α6/α3β2β3 nAChR, the “blocking activity on human α6/α3β2β3 nAChR” value is recorded as “blocking activity similar to those for rat α6/α3β2β3 nAChR”.

Turning to `CC(C)C[C@@H]1NC(=O)[C@H](CC(=O)O)NC(=O)[C@@H]2CCCN2C(=O)[C@H](Cc2cnc[nH]2)NC(=O)[C@H](CCCCN)NC(=O)[C@H](CC(N)=O)NC(=O)[C@H](CCCNC(=N)N)NC(=O)[C@@H]2CSSC[C@H](NC(=O)CN)C(=O)N[C@@H](CSSC[C@@H](C(N)=O)NC1=O)C(=O)N[C@@H](CO)C(=O)N[C@@H](CC(=O)O)C(=O)N1CCC[C@H]1C(=O)N1CCC[C@H]1C(=O)N2` [TxIB] (H-GCCSDPPCRNKHPDLC-NH2; disulfide 2-8, 3-16), the IC50 against α4β2 nAChR is more than 10 µM; on α3β2 nAChR, more than 10 µM; against α6/α3β4 nAChR, more than 10 µM; at α3β4 nAChR, more than 10 µM; against α2β2 nAChR, more than 10 µM; against α6/α3β2β3 nAChR it was 0.0284 µM. Besides, the IC50 at α2β4 nAChR, against α4β4 nAChR, against α9α10 nAChR and against α7 nAChR was more than 10 µM throughout.

Regarding `CC[C@H](C)[C@@H]1NC(=O)[C@@H]2CCCN2C(=O)[C@H](CO)NC(=O)[C@H](CCSC)NC(=O)[C@H](C)NC(=O)[C@H](CO)NC(=O)[C@@H]2CSSC[C@H](NC(=O)CN)C(=O)N[C@@H](CSSC[C@@H](C(N)=O)NC1=O)C(=O)N[C@@H](CO)C(=O)N[C@@H](Cc1c[nH]cn1)C(=O)N1CCC[C@H]1C(=O)N[C@@H](C(C)C)C(=O)N2` [TxIC], the half-maximal inhibitory concentration (IC50) in the test on other nAChRs subtypes was more than 10 µM. Besides, the figures for the “Hill slope of dose-response curve” value on α6/α3β4 nAChR, at α3β4 nAChR and at α2β4 nAChR were 0.26 (0.73-1.87), 0.19 (0.66-1.44) and 0.20 (1.48-2.42), respectively. Moreover, the “blocking of ACh-gated current” value on α3β4 nAChR is given as “specifically blocked; also recorded: completely blocked”; on α4β4 nAChR, “totally does not block; also recorded: no blocking activity”; on α7 nAChR, “totally does not block; also recorded: no blocking activity”.

With GCCSDPRCNYDHPEIC* [Vc1.1], the concentration for half-maximal inhibition (IC50) in [1] was 7.3 µM; in test [2] it was 0.14 µM; in [3], 0.019 µM; in test [4] it was 0.98 µM.

With GCCSHPACNVNNPHIC* [RegIIA], the half-maximal inhibitory concentration (IC50) was 0.103 µM in test [5], 0.097 µM in [6] and 0.033 µM in [1].

As for GCCSHPACSVNHPELC* [PeIA], the 50% inhibitory concentration (IC50) in test [5] is 1.8 µM; in test [6] it was 0.48 µM; in [1], 0.023 to 0.0975 µM; in test [3], 0.0069 to 0.0549 µM.

With GCCSYPPCFATNP-DC* [AuIB], the IC50 in test [6] was 0.75 µM.

Turning to NGRCC-HPACGKHFN--C* [Ac1.1a], the nAChRs selectivity result with nAChRs is listed as “Muscle nAChR”.

Take RDPCCSNPVCTVHNPQIC* [PIA]: the IC50 in test [6] is 0.518 µM; in test [1], 0.0742 µM; in test [2], 0.001 to 0.0017 µM; in test [4], 0.0126 to 0.0305 µM.

Consider RTCCSRPTCRMEYPELC*grr [SrIA/SrIB], for which, in the test with nAChRs, the nAChRs selectivity result is on record as “Muscle nAChR/α4β2”.

B1: α-conotoxin TxIB/Txd4(G) (peptide)
peptide: GCCSDPPCRNKHPDLCG
modifications: not fully specified; ends and bridges not checked
As to B1, the IC50 (half-blocking dose) on ACh-gated current was 0.247 µM in [7]; more than 10 µM in the test with rat α6/α3β4 nAChR (rat); more than 10 µM with rat α3β2 nAChR; more than 10 µM with rat α3β4 nAChR; more than 10 µM with rat α4β2 nAChR; more than 10 µM with rat α4β4 nAChR. Further, the “IC50 (half-blocking dose) on ACh-gated current” value with rat α2β4 nAChR, with rat α7 nAChR, with rat α9α10 nAChR and with rat α2β2 nAChR was more than 10 µM each time.

B2: α-conotoxin TxIB/Txd4 (peptide)
peptide: GCCSDPPCRNKHPDLC
modifications: not fully specified; ends and bridges not checked
B2: the IC50 (half-blocking dose) on ACh-gated current is 0.0284 µM in test [7]; more than 10 µM with rat α6/α3β4 nAChR (rat); more than 10 µM with rat α3β2 nAChR; more than 10 µM with rat α3β4 nAChR; more than 10 µM in the test with rat α4β2 nAChR; more than 10 µM with rat α4β4 nAChR. For the same molecule, the “IC50 (half-blocking dose) on ACh-gated current” value with rat α2β4 nAChR, in the test with rat α7 nAChR, in the test with rat α9α10 nAChR and with rat α2β2 nAChR was more than 10 µM in each case.
